Structures can show the parent of a compound that is named as a salt. Square brackets hold non-standard residues; d marks the D form. Ends that are not written are not given here. Peptide text beside a SMILES is read from it.
Columns and labels:
[1] = system: M. avium; details: broth culture; cited from earlier work
Text: In contrast, we now verify that only D-LFcin17–30 induces a significant decrease in mycobacterial growth inside macrophages. However, all peptides were effective when combined with the antibiotic ethambutol. The combination of antimicrobial peptides with conventional antibiotics is of great potential interest, as it might reduce the dosages of each ...

[2] = 40 µM peptide in supplemented DMEM cell culture medium, 37°C, up to 96 h; RP-HPLC C18, UV 220 nm, peak area relative to time zero
Experimental: (§1) After 0, 0.5, 2, 4, 8, 24, 48, 72, and 96 h of incubation, a 40-µl aliquot was immediately injected for RP-HPLC analysis using an elution gradient of 0 to 100% acetonitrile in 0.05% aqueous trifluoroacetic acid (TFA) for 30 min at a flow rate of 1 ml/min.
(§2) At the end of 0, 0.5, 2, 4, 8, 24, 48, 72, and 96 h, an aliquot was taken from each mixture and analyzed by high-performance liquid chromatography (HPLC). The HPLC (Hitachi Elite Autosampler L-2200, pump L-2130, diode array detector L-2455, and column oven L-2300) was performed with a 150-mm-diameter C18 reverse-phase column (Merck). Each analysis involved an injection volume of 40 µl and elution with 0 to 100% acetonitrile in 0.05% aqueous trifluoroacetic acid (TFA) at a flow rate of 1 ml/min; the detection wavelength was set to 220 nm. The chromatograms were analyzed with EZChrom Elite software, and the peaks were integrated to extract the area.

[3] = system: M. avium-infected macrophages; details: M. avium 2447 SmT-infected BMM; 4 to 120 h; data not shown
[4] = in vitro; details: cell culture medium (supplemented DMEM)
Experimental: as §1, §2

[5] = system: M. avium 2447 SmT; assay: Intramacrophagic M. avium growth, CFU assay in BALB/c BMM; type: cell-based, Mycobacterium avium; details: peptides 40 µM, ethambutol 7.2 µM, each alone, 5 days
Experimental: Given that the peptides at up to 40 µM were not toxic to macrophages, we evaluated their effect on M. avium growing inside these cells. Bone marrow-derived macrophages were obtained from BALB/c mice and infected with M. avium 2447 smooth transparent variant (SmT). The different peptides were added at 40 µM, and ethambutol was added at 7.2 µM. After 5 days in culture, the number of intracellular bacteria per culture well was quantified in a CFU assay (Fig. 1D).
BMM at day 10 of culture were infected with 10^6 CFU of M. avium 2447 SmT for 4 h at 37°C in a 7% CO2 atmosphere. After incubation, cells were washed several times to remove noninternalized bacteria and reincubated with new medium with or without 40 µM peptide (76.9 µg/ml LFcin17–30 and D-LFcin17–30, 73.6 µg/ml LFcin17–30 all R, 80.3 µg/ml LFcin17–30 all R), alone or in combination with the antibiotic ethambutol (2 µg/ml or 7.2 µM ethambutol dihydrochloride; Sigma-Aldrich, St. Louis, MO, USA). Each condition was tested in triplicate. After 5 days in culture, the intracellular growth of M. avium 2447 SmT was evaluated by determining the number of CFU, as described previously ([75]).

Molecule | activity against M. avium in axenic cultures [1] | levels of apoptosis or necrosis [3] | further results
FRCRRWQWRMRRLG [LFcin17–30 all R, LFcin17–30 variant with all lysines replaced with arginines] | all active | – | –
FKCRRWQWRMKKLG [LFcin17–30] | – | no significant changes | degradation of peptide after 96 h of incubation [2]: completely degraded; metabolised at 24 h, 40 µM [4]: 50%
FKCKKWQWKMKKLG [LFcin17–30 all K, LFcin17–30 variant with all arginines replaced with lysines] | all active | – | –
CC[C@@H](CO)NCCN[C@@H](CC)CO [ethambutol, ethambutol dihydrochloride] | – | – | inhibition of intramacrophagic M. avium growth, compound alone [5]: None of the other peptides or ethambutol alone significantly inhibited M. avium growth
CSCC[C@@H](NC(=O)[C@@H](CCCNC(=N)N)NC(=O)[C@@H](Cc1c[nH]c2ccccc12)NC(=O)[C@@H](CCC(N)=O)NC(=O)[C@@H](Cc1c[nH]c2ccccc12)NC(=O)[C@@H](CCCNC(=N)N)NC(=O)[C@@H](CCCNC(=N)N)NC(=O)[C@@H](CS)NC(=O)[C@@H](CCCCN)NC(=O)[C@H](N)Cc1ccccc1)C(=O)N[C@H](CCCCN)C(=O)N[C@H](CCCCN)C(=O)N[C@H](CC(C)C)C(=O)NCC(=O)O [D-LFcin17–30] (H-[dF][dK][dC][dR][dR][dW][dQ][dW][dR][dM][dK][dK][dL]G-OH) | – | no significant changes | metabolised at 96 h, 40 µM [4]: ≤ 30%

Reference: paper PMC5577653, “Lactoferricin Peptides Increase Macrophages' Capacity To Kill Mycobacterium avium” (mSphere, 2017)
